Values quoted from earlier work in US20250186494A1, “CAR-T THERAPIES TARGETED VIA COVALENTLY BONDED ADAPTERS” (THE SCRIPPS RESEARCH INSTITUTE, priority 2023, published 2025).

Molecular target: PSMA (Homo sapiens, UniProt Q04609)
Settings: already known targeting moiety

Chain of PSMA (Q04609 whole entry): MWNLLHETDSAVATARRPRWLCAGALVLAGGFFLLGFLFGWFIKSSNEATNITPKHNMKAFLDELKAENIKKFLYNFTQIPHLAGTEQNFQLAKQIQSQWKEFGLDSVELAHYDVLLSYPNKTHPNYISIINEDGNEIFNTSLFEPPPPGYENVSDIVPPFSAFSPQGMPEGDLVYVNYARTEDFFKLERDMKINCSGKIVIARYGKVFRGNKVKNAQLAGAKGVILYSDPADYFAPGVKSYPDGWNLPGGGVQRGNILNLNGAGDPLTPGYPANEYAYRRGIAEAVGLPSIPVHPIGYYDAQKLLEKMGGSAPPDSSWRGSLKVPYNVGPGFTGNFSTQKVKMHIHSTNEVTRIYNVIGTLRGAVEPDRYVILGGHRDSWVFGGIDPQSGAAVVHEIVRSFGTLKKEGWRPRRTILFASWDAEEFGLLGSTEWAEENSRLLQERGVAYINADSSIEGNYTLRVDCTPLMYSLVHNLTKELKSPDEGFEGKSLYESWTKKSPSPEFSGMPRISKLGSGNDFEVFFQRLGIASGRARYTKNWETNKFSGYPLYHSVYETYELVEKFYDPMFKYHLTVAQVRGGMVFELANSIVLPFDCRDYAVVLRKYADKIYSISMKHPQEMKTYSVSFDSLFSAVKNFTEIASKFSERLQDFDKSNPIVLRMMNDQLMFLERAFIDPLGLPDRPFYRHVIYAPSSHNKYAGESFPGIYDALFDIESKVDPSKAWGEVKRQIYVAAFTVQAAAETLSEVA

affinity for PSMA: nM affinity
SMILES: O=C(O)CCC(NC(=O)NC(CCC(=O)O)C(=O)O)C(=O)O (stereo not shown) [DUPA, 2-[3-(1,3-dicarboxypropyl)ureido]pentanedioic acid]
